Laboratory results published in US10555987B2, “GHRH agonists for the treatment of ischemic disorders” (UNIVERSITY OF MIAMI, priority 2012, dated 2020).
“And” between values parts separate entries of the source, which are not always exact repeats. Equal entries are not always repeated. Non-standard residues stand in square brackets, D forms with d. Residues, ends and D or L forms follow the SMILES beside them. NMeY = CN[C@@H](Cc1ccc(O)cc1)C(=O)O; Nle = CCCC[C@H](N)C(=O)O; Orn = NCCC[C@H](N)C(=O)O; Abu = CC[C@H](N)C(=O)O; Aoc = NCCCCCCCC(=O)O; Ava = NCCCCC(=O)O

Experiments:
[1] = system: myocardial infarction (Fisher-344 rats); test: Serial echocardiography after MI, compared to JI-38 (Example 15, Table 15); type: in vivo, rat; design: key to LVEDD: Left Ventricular End Diastolic Diameter / LVESD: Left Ventricular End Systolic Diameter / VD: Ventricular Diastole / VS: Ventricular Systole / EF: Ejection Fraction / FS: Fraction Shortening: ↓: downward arrow denotes lower than JI-38; ↑: upward arrow denotes greater than JI-38; =denotes same as JI-38; ⬇⬇: double arrow denotes greater effect; ⬆⬆: double arrow denotes greater effect; conditions: in comparison to JI-38
Procedure: Echocardiographic measurements were obtained at baseline, 2 days, 1, 2 and 4 weeks. Echocardiographic assessments were performed in anesthetized rats (2% isoflurane inhalation) using a Vevo-770 echocardiogram (Visual Sonics Inc., Toronto, Ontario, Canada) equipped with a 17.5-MHz transducer. Cardiac dimensions: LV end diastolic (LVEDD), end systolic (LVESD) diameters and fractional shortening (FS) were recorded from M-mode images using averaged measurements from 3 to 5 consecutive cardiac cycles according to the American Society of Echocardiography. Ejection fraction (EF) was calculated from bi-dimensional long-axis parasternal views taken through the infarcted area. All images were analyzed using Vevo 770 3.0.0 software (Visual Sonics Inc., Toronto, Ontario, Canada).
(§1) Myocardial infarction (MI) was induced by permanent ligation of the left coronary artery in female 6-month-old Fisher-344 rats. Following experimental myocardial infarction (MI), rats were randomly assigned to receive either placebo, JI-38, or one of the following new analogs of GHRH: MR-30 l(P-21301), MR-303(P-21303), MR-356(P-20356), MR-502(25502), MR-350(P-20350), MR-36 l(P-20361), MR-367(P-20367), MR-403(P-27403), MR-404(P-27404), and MR-409(P-27409) (10 rats per each group). The GHRH peptide agonists were adminsistered starting 2 hours post-surgery, 1 week, 2 week, and 4 week intervals. All treatment was given subcutaneously twice daily. Cardiac performance was assessed by serial echocardiography and hemodynamic analysis derived from pressure-volume loops as described before.
The echocardiographic experiments are shown in FIGS. 10-15 and the results are summarized in Table 15 (results were expressed in comparison to JI-38; downward arrow denotes lower than JI-38; upward arrow denotes greater than JI-38; =denotes same as JI-38; and double arrow denotes greater effect).

[2] = system: myocardial infarction (Fisher-344 rats); test: Hemodynamic analysis (pressure-volume loops), body and heart weight after MI, compared to JI-38 (Example 15, Table 16); type: in vivo, rat; design: key to ESP (End-Systolic Pressure) / EDP (End-Diastolic Pressure) / ESV (End-Systolic Volume) / PRSW (Preload Recruitable Stroke Work) / Ees (End-systolic Elastance) / dP/dt max (peak rate of the pressure rise) / dP/dt max_EDV / dP/dt min / TAU (relaxation time constant calculated by Weiss method) / SV (Stroke Volume) / CO (Cardiac Output) / SW (Stroke Work) / EF / Ea/Ees / Ea (arterial Elastance): ↓: downward arrow denotes lower than JI-38; ↑: upward arrow denotes greater than JI-38; =denotes same as JI-38; ⬇⬇: double arrow denotes greater effect; ⬆⬆: double arrow denotes greater effect; conditions: rat MI model, s.c. twice daily; pressure-volume loops; expressed in comparison to JI-38
Procedure: Rats were anesthetized by intramuscular injection of a mixture of ketamine (100 mg/kg), xylazine (20 mg/kg) and acepromazine (10 mg/kg). A 2-F micromanometer tipped catheter (SPR-838, Millar Instruments, Houston, Tex.) was inserted into the right carotid artery and advanced retrograde into the left ventricle. Measurements were calibrated by injecting a hypertonic saline (15%) bolus to determine extra-ventricular conductance; relative volume units were converted to actual volume using the cuvette calibration method. All analyses were performed using PVAN 3.0 software (Millar Instruments, Houston, Tex.).
as §1
The hemodynamic studies are shown in FIGS. 16-33 and the results are summarized in Table 16 (results were expressed in comparison to JI-38; downward arrow denotes lower than JI-38; upward arrow denotes greater than JI-38; =denotes same as JI-38; and double arrow denotes greater effect).

[3] = system: GH release; test: In vivo endocrine activity, GH release after subcutaneous administration (Table 9); conditions: rat; for GH releasing potency relative to JI-38 (=1): subcutaneous (s.c.) injection
Procedure: Subcutaneous Administration. Adult male rats were used and anesthetized with pentobarbital (6 mg/100 g, b.w.), by i.p. injection. […] Blood samples were taken from the jugular vein 5, 15 and/or 30 minutes after the injection. The blood samples were centrifuged, plasma was removed and the GH level was measured byELISA. The results are summarized in terms of potency in Table 9.

[4] = target: T1, GHRH receptor (Homo sapiens, UniProt Q02643); test: GHRH receptor binding, competition with 125I-labeled JV-1-42, human pituitary membrane homogenates (Table 7); design: Normal human pituitaries were purchased from the National Hormone and Peptide Program; tissue National Hormone and Peptide Program (A.F. Parlow, Harbor-UCLA Medical Center, Torrance, Calif.); host or cells: normal human pituitary, membrane fraction; conditions: JI-38 = 1, Table 7
T1 sequence (Q02643 23-423): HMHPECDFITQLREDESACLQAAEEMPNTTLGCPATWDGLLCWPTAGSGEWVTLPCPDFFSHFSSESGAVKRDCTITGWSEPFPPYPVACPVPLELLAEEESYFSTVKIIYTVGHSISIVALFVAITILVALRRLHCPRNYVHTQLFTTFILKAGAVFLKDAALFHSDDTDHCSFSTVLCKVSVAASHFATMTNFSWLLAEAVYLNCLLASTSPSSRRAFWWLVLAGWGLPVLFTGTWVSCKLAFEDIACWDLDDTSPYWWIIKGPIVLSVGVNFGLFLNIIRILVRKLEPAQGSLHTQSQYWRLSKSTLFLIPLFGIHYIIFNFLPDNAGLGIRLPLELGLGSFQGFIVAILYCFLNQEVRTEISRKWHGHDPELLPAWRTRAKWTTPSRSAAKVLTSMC
Description: Normal human pituitaries were purchased from the National Hormone and Peptide Program (A.F. Parlow, Los Angeles, County Harbor-UCLA Medical Center, Torrance, Calif.).

[5] = system: GH release; test: In vivo endocrine activity, GH release after intravenous administration (Table 8); conditions: rat, i.v. injection
Procedure: In vivo tests on endocrine activity of new GHRH agonists (Intravenous administration). For in vivo tests based on intravenous administration, adult male Sprague-Dawley rats were anesthetized with pentobarbital (6 mg/100/g, b.w.), and GHRH agonists were injected 20 minutes after the injection of pentobarbital. Blood samples were taken from the jugular vein (pretreated level), immediately after hGHRH(1-29)NH2 injection (as a control) or after hGHRH analogs injection. Blood samples were taken from the jugular vein 5, 15 and 30 minutes after the injection. The blood samples were centrifuged, plasma was removed and the GH level was measured by ELISA.

[6] = system: GH release; test: GH releasing potency in vivo, subcutaneous administration (Example 14, Table 12); design: species or system rat; conditions: s.c.
Procedure, shortened: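 Potency is expressed relative to GHRH(1-29)NH2 and JI-38 (each = 1), via equivalent GHRH(1-29)NH2 dose read from a standard curve. Peptides in 5% mannitol given i.v. or s.c. to anaesthetised male Sprague-Dawley rats (200-250 g); serum GH measured by ELISA at selected times.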

[7] = target: T1, GHRH receptor; test: Receptor binding in vitro, 125I-labeled [His1,Nle27]-hGHRH(1-32)NH2, membrane receptors of human anterior pituitary cells (Table 14)
Description: Normal human pituitary was purchased from the National Hormone and Peptide Program (UCLA Medical Center, Torrance, Calif.).

With CCCC[C@H](NC(=O)[C@@H](NC(=O)[C@H](CC(=O)O)NC(=O)[C@H](CCC(N)=O)NC(=O)[C@H](CC(C)C)NC(=O)[C@H](CC(C)C)NC(=O)[C@H](CCCN)NC(=O)[C@H](CCCNC(=N)N)NC(=O)[C@H](C)NC(=O)[C@H](CO)NC(=O)[C@H](CC(C)C)NC(=O)[C@H](CCC(N)=O)NC(=O)[C@H](CC)NC(=O)[C@H](CC(C)C)NC(=O)[C@@H](NC(=O)[C@H](CCCN)NC(=O)[C@H](CCCNC(=N)N)NC(=O)[C@H](Cc1ccc(O)cc1)NC(=O)[C@H](CO)NC(=O)[C@H](CC(N)=O)NC(=O)[C@@H](NC(=O)[C@H](Cc1ccccc1)NC(=O)[C@@H](NC(=O)[C@H](C)NC(=O)[C@H](CC(=O)O)NC(=O)[C@@H](C)NC(=O)[C@H](Cc1ccc(O)cc1)NC)[C@@H](C)CC)[C@@H](C)O)C(C)C)[C@@H](C)CC)C(=O)N[C@@H](CC(=O)O)C(=O)N[C@@H](CCCNC(=N)N)C(=O)NCCCCCCCC(N)=O [Peptide P-21303, [N—Me-Tyr^1, D-Ala^2, Orn^12, Abu^15, Orn^21, Nle^27, Asp^28, Amc^30]hGHRH(1-30)NH2] (H-[NMeY][dA]DAIFTNSYR[Orn]VL[Abu]QLSAR[Orn]LLQDI[Nle]DR[Aoc]-NH2) the “EF: Ejection Fraction” value [1] was “↓”, the “FS: Fraction Shortening” value [1] was “=” and the “LVEDD: Left Ventricular End Diastolic Diameter” value [1] was “=”. For the same compound, the “LVESD: Left Ventricular End Systolic Diameter” value [1] was “=”, the “VD: Ventricular Diastole” value [1] was “↑” and the “VS: Ventricular Systole” value [1] was “↑”. For the same compound, the “CO (Cardiac Output)” value [2] was “=”, the “EDP (End-Diastolic Pressure)” value [2] was “↑” and the EF [2] was “↑”. For the same compound, the “ESP (End-Systolic Pressure)” value [2] was “↓”, the “ESV (End-Systolic Volume)” value [2] was “=” and the “Ea (arterial Elastance)” value [2] was “=”. For the same compound, the Ea/Ees [2] was “=”, the “Ees (End-systolic Elastance)” value [2] was “↓” and the “PRSW (Preload Recruitable Stroke Work)” value [2] was “↓”. The “SV (Stroke Volume)” value [2] was “=”, the “SW (Stroke Work)” value [2] was “=” and the “TAU (relaxation time constant calculated by Weiss method)” value [2] was “=”. For the same compound, the “dP/dt max (peak rate of the pressure rise)” value [2] was “↓”, the “dP/dt max_EDV” value [2] was “↓” and the dP/dt min [2] was “=”. For the same compound, the “GH releasing potency relative to JI-38 (=1)” value ([3]; 15 min after) was 0.95, the “GH releasing potency relative to JI-38 (=1)” value ([3]; 30 min after) was 1.45 and the “Relative affinity (Binding potency) vs JI-38” value [4] was 2.32. For the same compound, the “GH releasing potency in vivo relative to JI-38 (=1)” value ([5]; 5 min after) was 0.79, the “GH releasing potency in vivo relative to JI-38 (=1)” value ([5]; 15 min after) was 1.14 and the “GH releasing potency in vivo relative to JI-38 (=1)” value ([5]; 30 min after) was 0.81.
In the case of CCCC[C@H](NC(=O)[C@@H](NC(=O)[C@H](CC(=O)O)NC(=O)[C@H](CCC(N)=O)NC(=O)[C@H](CC(C)C)NC(=O)[C@H](CC(C)C)NC(=O)[C@H](CCCN)NC(=O)[C@H](CCCNC(=N)N)NC(=O)[C@H](C)NC(=O)[C@H](CO)NC(=O)[C@H](CC(C)C)NC(=O)[C@H](CCC(N)=O)NC(=O)[C@H](CC)NC(=O)[C@H](CC(C)C)NC(=O)[C@@H](NC(=O)[C@H](CCCN)NC(=O)[C@H](CCCNC(=N)N)NC(=O)[C@H](Cc1ccc(O)cc1)NC(=O)[C@H](CO)NC(=O)[C@H](CCC(N)=O)NC(=O)[C@@H](NC(=O)[C@H](Cc1ccccc1)NC(=O)[C@@H](NC(=O)[C@H](C)NC(=O)[C@H](CC(=O)O)NC(=O)[C@@H](C)NC(=O)[C@H](Cc1ccc(O)cc1)NC)[C@@H](C)CC)[C@@H](C)O)C(C)C)[C@@H](C)CC)C(=O)N[C@@H](CC(=O)O)C(=O)N[C@@H](CCCNC(=N)N)C(=O)NCCCCC(N)=O [Peptide P-22326, [N—Me-Tyr^1, D-Ala^2, Gln^8, Orn^12, Abu^15, Orn^21, Nle^27, Asp^28, Apa^30] hGHRH(1-30)NH2] (H-[NMeY][dA]DAIFTQSYR[Orn]VL[Abu]QLSAR[Orn]LLQDI[Nle]DR[Ava]-NH2), the “Serum GH level at selected time after injection (ng/ml), 0 min” value ([6]; male rats, dose 3 μg/kg, 0 min, mean ± SEM) is reported as 43.7 ± 6.4 ng/mL, the “Serum GH level at selected time after injection (ng/ml), 15 min” value ([6]; male rats, dose 3 μg/kg, 15 min, mean ± SEM) is reported as 309.2 ± 33.5 ng/mL and the “Serum GH level at selected time after injection (ng/ml), 30 min” value ([6]; male rats, dose 3 μg/kg, 30 min, mean ± SEM) is reported as 225.9 ± 19.8 ng/mL. For the same compound, the “GH-releasing potency after s.c. administration (in words)” value [6] was “significantly higher potencies at 30 minutes than at 15 minutes”, the “Relative potency compared to GHRH(1-29), 15 min” value ([6]; 15 min) was 92.7 and the “Relative potency compared to JI-38, 15 min” value ([6]; 15 min, listed as MR-326) was 1.5 and 1.47. For the same compound, the “Relative potency compared to GHRH(1-29), 30 min” value ([6]; 30 min) was 303.4, the “Relative potency compared to JI-38, 30 min” value ([6]; 30 min, listed as MR-326) was 2.7 and 2.71 and the “Relative affinity (Binding potency) compared to JI-38” value ([7]; JI-38 = 1) was 2.80. For the same compound, the “Relative affinity (Binding potency) compared to hGHRH(1-29)” value ([7]; hGHRH(1-29)NH2 = 1) was 7.81, the “Stimulation of growth hormone levels after subcutaneous administration (in words)” value ([3]; s.c.) was “stimulated greater growth hormone levels than hGHRH or JI-38” and the “GH releasing potency relative to JI-38 (=1)” value ([3]; 15 min after) was 1.76. The “GH releasing potency relative to JI-38 (=1)” value ([3]; 30 min after) was 2.31, the “Relative affinity (Binding potency) vs JI-38” value [4] was 6.12 and the “GH releasing potency in vivo relative to JI-38 (=1)” value ([5]; 15 min after) was 0.28. For the same compound, the “GH releasing potency in vivo relative to JI-38 (=1)” value ([5]; 30 min after) was 0.94.
